Values after ≈ are worked out from the molar mass of the structure shown.
What was measured:
Assay in all cases: MIC, broth microdilution growth inhibition
Assay type in all cases: cell-based
Settings in all cases: Mueller-Hinton broth, 37° C., 18 h, unit assumed
A. calcoaceticus 1726 = system: A. calcoaceticus 1726
Method: (§1) Growth inhibitory activity was determined on liquid medium by the antibiotic dilution technique using 96-well microtiter system plates containing two-fold dilutions of antibiotic-agent in 0.2 ml. of Mueller-Hinton broth. Plates were inoculated with each test organism to yield a final inoculum of 5×10^5 CFU/ml and were incubated aerobically at 37° C. for 18 h. The MIC was defined as the lowest concentration of antibacterial agent that inhibited development of visible growth in the microdilution wells. GAR936 can be prepared e.g. as in J. Med Chem 1994, 37 184-188. Minocyline is available from e.g. Aldrich.

E. coli 851E = system: E. coli 851E
Method: as §1

E. coli D1-209 Tet R = system: E. coli D1-209 Tet R
Method: as §1

E. coli D1-299 Tet R = system: E. coli D1-299 Tet R
Method: as §1

E. faecalis 73 Tet R = system: E. faecalis 73 Tet R
Method: as §1

E. faecalis ATCC 29212 = system: E. faecalis ATCC 29212
Method: as §1

E. faecium 494 = system: E. faecium 494
Method: as §1

E. faecium 97 Tet R = system: E. faecium 97 Tet R
Method: as §1

H. influenzae ATCC 4927 = system: H. influenzae ATCC 4927
Method: as §1

K. Pneumoniae 3226 = system: K. Pneumoniae 3226
Method: as §1

[1] = system: M. catarrhalis ATCC 23246
Method: as §1

P. aeruginosa 3808 = system: P. aeruginosa 3808
Method: as §1

S. aureus ATCC 29213 = system: S. aureus ATCC 29213
Method: as §1

S. aureus GFX01596 Tet R = system: S. aureus GFX01596 Tet R
Method: as §1

S. pneumoniae 157 = system: S. pneumoniae 157
Method: as §1

[2] = system: S. pneumoniae GFX01778 Tet R
Method: as §1

E. coli 851ML308-225 = system: E. coli 851ML308-225
Method: as §1

CN(C)c1cc(NC(=O)CNC(C)(C)C)c(O)c2c1C[C@H]1C[C@H]3[C@H](N(C)C)C(O)=C(C(N)=O)C(=O)[C@@]3(O)C(O)=C1C2=O [GAR-936]
MIC (A. calcoaceticus 1726): 32 µg/mL (≈ 54.6 µM) | MIC (E. coli 851E): 1 µg/mL (≈ 1.71 µM) | MIC (E. coli D1-209 Tet R): 0.5 µg/mL (≈ 0.854 µM) | MIC (E. coli D1-299 Tet R): 0.5 µg/mL (≈ 0.854 µM) | MIC (E. faecalis 73 Tet R): 0.5 µg/mL (≈ 0.854 µM) | MIC (E. faecalis ATCC 29212): 0.5 µg/mL (≈ 0.854 µM) | MIC (E. faecium 494): 0.5 µg/mL (≈ 0.854 µM) | MIC (E. faecium 97 Tet R): 0.5 µg/mL (≈ 0.854 µM) | MIC (H. influenzae ATCC 4927): 1 µg/mL (≈ 1.71 µM) | MIC (K. Pneumoniae 3226): 2 µg/mL (≈ 3.41 µM) | MIC [1]: 0.12 µg/mL (≈ 0.205 µM) | MIC (P. aeruginosa 3808): 32 µg/mL (≈ 54.6 µM) | MIC (S. aureus ATCC 29213): 0.5 µg/mL (≈ 0.854 µM) | MIC (S. aureus GFX01596 Tet R): 1 µg/mL (≈ 1.71 µM) | MIC (S. pneumoniae 157): 0.25 µg/mL (≈ 0.427 µM) | MIC [2]: 0.06 µg/mL (≈ 0.102 µM)

CN(C)CC(=O)Nc1cc(-n2ccc(C=O)c2)c2c(c1O)C(=O)C1=C(O)[C@]3(O)C(=O)C(C(N)=O)=C(O)[C@@H](N(C)C)[C@@H]3C[C@@H]1C2 [Compound C]
MIC (A. calcoaceticus 1726): 16 µg/mL (≈ 26.3 µM) | MIC (E. coli 851E): 1 µg/mL (≈ 1.65 µM) | MIC (E. coli 851ML308-225): 0.03 µg/mL (≈ 0.0494 µM) | MIC (E. coli D1-209 Tet R): 1 µg/mL (≈ 1.65 µM) | MIC (E. coli D1-299 Tet R): 16 µg/mL (≈ 26.3 µM) | MIC (E. faecalis 73 Tet R): 0.004 µg/mL (≈ 0.00658 µM) | MIC (E. faecalis ATCC 29212): 0.125 µg/mL (≈ 0.206 µM) | MIC (E. faecium 494): 0.25 µg/mL (≈ 0.411 µM) | MIC (E. faecium 97 Tet R): 0.06 µg/mL (≈ 0.0987 µM) | MIC (H. influenzae ATCC 4927): 1 µg/mL (≈ 1.65 µM) | MIC (K. Pneumoniae 3226): 125 µg/mL (≈ 206 µM) | MIC [1]: 0.002 µg/mL (≈ 0.00329 µM) | MIC (P. aeruginosa 3808): 32 µg/mL (≈ 52.7 µM) | MIC (S. aureus ATCC 29213): 0.125 µg/mL (≈ 0.206 µM) | MIC (S. aureus GFX01596 Tet R): 4 µg/mL (≈ 6.58 µM) | MIC (S. pneumoniae 157): 0.015 µg/mL (≈ 0.0247 µM) | MIC [2]: 0.03 µg/mL (≈ 0.0494 µM)

CN(C)c1ccc(O)c2c1C[C@H]1C[C@H]3[C@H](N(C)C)C(=O)C(C(N)=O)=C(O)[C@@]3(O)C(=O)C1=C2O [MINO, Minocyline]
MIC (A. calcoaceticus 1726): 1 µg/mL (≈ 2.19 µM) | MIC (E. coli 851E): 0.5 µg/mL (≈ 1.09 µM) | MIC (E. coli 851ML308-225): 0.25 µg/mL (≈ 0.546 µM) | MIC (E. coli D1-209 Tet R): 16 µg/mL (≈ 35 µM) | MIC (E. coli D1-299 Tet R): 1 µg/mL (≈ 2.19 µM) | MIC (E. faecalis 73 Tet R): 32 µg/mL (≈ 69.9 µM) | MIC (E. faecalis ATCC 29212): 2 µg/mL (≈ 4.37 µM) | MIC (E. faecium 494): 32 µg/mL (≈ 69.9 µM) | MIC (E. faecium 97 Tet R): 32 µg/mL (≈ 69.9 µM) | MIC (H. influenzae ATCC 4927): 0.5 µg/mL (≈ 1.09 µM) | MIC (K. Pneumoniae 3226): 32 µg/mL (≈ 69.9 µM) | MIC [1]: 0.001 µg/mL (≈ 0.00219 µM) | MIC (P. aeruginosa 3808): 16 µg/mL (≈ 35 µM) | MIC (S. aureus ATCC 29213): 0.03 µg/mL (≈ 0.0656 µM) | MIC (S. aureus GFX01596 Tet R): 0.12 µg/mL (≈ 0.262 µM) | MIC (S. pneumoniae 157): 0.5 µg/mL (≈ 1.09 µM) | MIC [2]: 16 µg/mL (≈ 35 µM)

CN(C)[C@@H]1C(O)=C(C(N)=O)C(=O)[C@@]2(O)C(O)=C3C(=O)c4c(O)ccc(-n5ccc(C=O)c5)c4C[C@H]3C[C@@H]12 [Compound B, [4S-(4aα,5aα,12aα)]-4-(Dimethylamino)-7-(1H-pyrrol-1-yl-3-carboxaldehyde)-1,4,4a,5,5a,6,11,12a-octahydro-3,10,12,12a-tetrahydroxy-1,11-dioxo-2-naphthacenecarboxamide]
MIC (A. calcoaceticus 1726): > 128 µg/mL | MIC (E. coli 851E): 1 µg/mL (≈ 1.97 µM) | MIC (E. coli 851ML308-225): 0.5 µg/mL (≈ 0.985 µM) | MIC (E. coli D1-209 Tet R): > 128 µg/mL | MIC (E. coli D1-299 Tet R): 32 µg/mL (≈ 63.1 µM) | MIC (E. faecalis 73 Tet R): 8 µg/mL (≈ 15.8 µM) | MIC (E. faecalis ATCC 29212): 2 µg/mL (≈ 3.94 µM) | MIC (E. faecium 494): 32 µg/mL (≈ 63.1 µM) | MIC (E. faecium 97 Tet R): > 128 µg/mL | MIC (H. influenzae ATCC 4927): 1 µg/mL (≈ 1.97 µM) | MIC (K. Pneumoniae 3226): > 128 µg/mL | MIC [1]: 0.008 µg/mL (≈ 0.0158 µM) | MIC (P. aeruginosa 3808): > 128 µg/mL | MIC (S. aureus ATCC 29213): 0.015 µg/mL (≈ 0.0296 µM) | MIC (S. aureus GFX01596 Tet R): 0.25 µg/mL (≈ 0.493 µM) | MIC (S. pneumoniae 157): 0.015 µg/mL (≈ 0.0296 µM) | MIC [2]: 2 µg/mL (≈ 3.94 µM)

CN(C)[C@@H]1C(O)=C(C(N)=O)C(=O)[C@@]2(O)C(O)=C3C(=O)c4c(O)ccc(-n5ccc(C#N)c5)c4C[C@H]3C[C@@H]12 [Compound A, [4S-(4aα,5aα,12aα)]-7-(3-Cyanopyrrol-1-yl)-4-(Dimethylamino)-1,4,4a,5,5a,6,11,12a-octahydro-3,10,12,12a-tetrahydroxy-1,11-dioxo-2-naphthacenecarboxamide]
MIC (A. calcoaceticus 1726): 8 µg/mL (≈ 15.9 µM) | MIC (E. coli 851E): 1 µg/mL (≈ 1.98 µM) | MIC (E. coli 851ML308-225): 0.5 µg/mL (≈ 0.991 µM) | MIC (E. coli D1-209 Tet R): 16 µg/mL (≈ 31.7 µM) | MIC (E. coli D1-299 Tet R): 4 µg/mL (≈ 7.93 µM) | MIC (E. faecalis 73 Tet R): 4 µg/mL (≈ 7.93 µM) | MIC (E. faecalis ATCC 29212): 2 µg/mL (≈ 3.96 µM) | MIC (E. faecium 494): 8 µg/mL (≈ 15.9 µM) | MIC (E. faecium 97 Tet R): 8 µg/mL (≈ 15.9 µM) | MIC (H. influenzae ATCC 4927): 0.5 µg/mL (≈ 0.991 µM) | MIC (K. Pneumoniae 3226): > 128 µg/mL | MIC [1]: 0.001 µg/mL (≈ 0.00198 µM) | MIC (P. aeruginosa 3808): > 128 µg/mL | MIC (S. aureus ATCC 29213): 0.015 µg/mL (≈ 0.0297 µM) | MIC (S. aureus GFX01596 Tet R): 0.5 µg/mL (≈ 0.991 µM) | MIC (S. pneumoniae 157): 0.015 µg/mL (≈ 0.0297 µM) | MIC [2]: 2 µg/mL (≈ 3.96 µM)

Reference: patent US8211937B2, “7-pyrollyl 9-aminoacyl tetracycline compounds and methods of use thereof” (Paratek Pharmaceuticals, Inc., priority 2001, dated 2012)
